Laboratory results as given in PMC2625337, “Flexible modulation of agonist efficacy at the human A3 adenosine receptor by the imidazoquinoline allosteric enhancer LUF6000” (BMC Pharmacology, 2008).
Each block holds one compound with its values, some of them ahead of it.

Columns and labels:
Assay type in all cases: biochemical
[1] = molecular target: T1, human A3 adenosine receptor (A3 AR) (Homo sapiens, UniProt P0DMS8); experiment: […]GTPgammaS binding, CHO membranes; settings: agonist alone, no LUF6000
T1 construct: gene ADORA3; full-length receptor stably expressed in CHO cells, membrane preparation
T1 sequence (P0DMS8 1-318): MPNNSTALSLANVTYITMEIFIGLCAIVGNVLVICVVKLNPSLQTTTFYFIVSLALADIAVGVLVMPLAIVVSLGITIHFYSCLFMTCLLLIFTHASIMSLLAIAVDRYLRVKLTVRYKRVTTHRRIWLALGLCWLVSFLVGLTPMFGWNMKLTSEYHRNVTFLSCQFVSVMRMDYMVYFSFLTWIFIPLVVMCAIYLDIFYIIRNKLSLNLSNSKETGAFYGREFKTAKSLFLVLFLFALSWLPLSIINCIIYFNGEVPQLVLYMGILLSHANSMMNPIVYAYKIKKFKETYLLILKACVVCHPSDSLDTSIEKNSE

[2] = molecular target: T1, human A3 adenosine receptor (A3 AR); experiment: […]GTPgammaS binding, CHO membranes; settings: alone, no LUF6000; antagonist
[3] = molecular target: T1, human A3 adenosine receptor (A3 AR); experiment: […]GTPgammaS binding, CHO membranes
[4] = molecular target: T2, human A1 adenosine receptor (A1 AR) (Homo sapiens, UniProt P30542); settings: high-efficacy agonist
T2 construct: gene ADORA1; full-length receptor stably expressed in CHO cells, membrane preparation
T2 sequence (P30542 1-326): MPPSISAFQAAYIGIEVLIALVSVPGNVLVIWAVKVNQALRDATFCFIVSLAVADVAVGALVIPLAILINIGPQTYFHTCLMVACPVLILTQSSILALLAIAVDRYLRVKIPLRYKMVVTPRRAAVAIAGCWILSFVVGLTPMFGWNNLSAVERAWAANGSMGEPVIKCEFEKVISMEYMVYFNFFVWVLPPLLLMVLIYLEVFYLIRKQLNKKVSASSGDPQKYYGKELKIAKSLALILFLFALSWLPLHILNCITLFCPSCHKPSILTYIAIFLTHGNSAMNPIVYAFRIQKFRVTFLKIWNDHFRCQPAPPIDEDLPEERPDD

- Emax (% of NECA) [1]: < 10%
Structure (SMILES): O=c1[nH]cnc2c1ncn2[C@@H]1O[C@H](CO)[C@@H](O)[C@H]1O [inosine]

- Emax (%) [2]: 5.6 ± 2.5%
Structure (SMILES): OC[C@H]1O[C@@H](n2cnc3c(NCc4cccc(I)c4)nc(Cl)nc32)[C@H](O)[C@@H]1O [MRS542, 2-chloro-N^6-(3-iodobenzyl)adenosine]

Structure (SMILES): CNC(=O)[C@H]1O[C@@H](n2cnc3c(NCc4cccc(I)c4)ncnc32)[C@H](O)[C@@H]1O [IB-MECA]
- [35S]GTPgammaS binding, CHO membranes ([3]; agonist): IB-MECA was almost as efficacious as Cl-IB-MECA

Structure (SMILES): Clc1ccc(Nc2nc3ccccc3c3nc(C4CCCCC4)[nH]c23)cc1Cl [LUF6000, N-(3,4-dichloro-phenyl)-2-cyclohexyl-1H-imidazo [4,5-c]quinolin-4-amine]
- [35S]GTPgammaS binding, CHO membranes ([3]; allosteric enhancer, tested at 0.1-10 µM with agonists): LUF6000 showed a flexible modulatory effect of efficacy

Structure (SMILES): OC[C@H]1O[C@@H](n2cnc3c(NC4CCCC4)nc(Cl)nc32)[C@H](O)[C@@H]1O [CCPA, 2-chloro-N^6-cyclopentyladenosine]
- [35S]GTPgammaS binding, CHO membranes [4]: high-efficacy agonists CPA and CCPA or a low efficacy agonist MRS541 to activate the A1
